In the METLIN SMRT retention time set (Domingo-Almenara et al. 2019) one finds RP-LC retention time data, which are given here for 82 compounds.

The structures appear in SMILES notation.

A short description of this data set: gradient 5% acetonitrile 3 min, to 50% in 2 min, to 85% in 15 min, held 3 min, 100 µL/min. The note with it: column: Zorbax Extend-C18 2.1 x 50 mm; eluents: water / acetonitrile, 0.1% formic acid. In outline:
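Using water and acetonitrile that each contained 0.1% formic acid, mixtures of ~100 pure standards were separated at 100 μL/min on a Zorbax Extend-C18 column (2.1 × 50 mm, 1.8 μm). The HPLC fed a quadrupole time-of-flight mass spectrometer working in positive and negative ionization mode, with dead and dwell volumes of 40 μL and 900 μL. Data were acquired over 3 months. Retention time was read from computationally picked adduct peaks after manual inspection of each.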
In turn, `COc1cccc(CC(=O)N2CCC3(CC2)NC(=O)c2cc(C)ccc2N3C)c1` came in with an RP-LC retention time of 798 s.

`Cc1ccccc1OCc1nc(CCN(C)C(=O)CC2CCCC2)no1` gave an RP-LC retention time of 1020 s.

Compound `CCC(C)NC(=O)N1CC(Oc2ccc(-c3nc(-c4ccccc4)no3)cc2)C1` (configuration not stated) showed an RP-LC retention time of 712 s.

For the compound `O=C(Cn1nc2n(c1=O)CCCCC2)Nc1cccc(F)c1`, the RP-LC retention time was found to be 701 s.

For the compound `O=C(Nc1cccc(F)c1)C1CCc2nc(N3CCCCC3)ncc2C1` (configuration not stated), the RP-LC retention time was 800 s.

For the compound `Cc1cccc(Cl)c1NC(=O)CN1C(=O)NC2(CCC(C)CC2)C1=O` (configuration not stated), the RP-LC retention time stood at 805 s.

Take `COCCCNC(=O)C1CCN(c2nc3ccc(-c4cccs4)nc3s2)CC1`: the RP-LC retention time stood at 801 s.

As for `Cc1noc(C2CN(C(=O)NCc3ccc(F)cc3)CC23CCOCC3)n1` (configuration not stated), the RP-LC retention time was 698 s.

In the case of `Cc1nc(-c2cc(S(=O)(=O)Nc3cc(F)ccc3F)c(C)s2)sc1C`, the RP-LC retention time is 1100 s.

With `CC1CCCCN1CCNC(=O)c1nc2nc(-c3ccco3)cc(C(F)(F)F)n2n1` (configuration not stated), the RP-LC retention time was determined as 628 s.

The compound `CC(C)(C)C(=O)Nc1cnc(N2CCNCC2)c(C(=O)N2CCCC2)c1` registered an RP-LC retention time of 588 s.

`CCc1ccc(OCc2nc(CC(=O)Nc3nc(-c4ccc(C)cc4)cs3)cs2)cc1`: the RP-LC retention time is 1270 s.

With `Cn1c(=O)sc2cc(S(=O)(=O)N3CCC(C(=O)NCc4ccc(F)cc4)CC3)ccc21`, the RP-LC retention time stood at 818 s.

As for `Cc1cc2c(c(=O)n(-c3ccc(F)cc3)c(=O)n2CC(=O)Nc2ccc(C(C)C)cc2)n1C`, the RP-LC retention time was found to be 921 s.

In turn, `CCC1(C(=O)Nc2ccc(OC)c(F)c2)CCCCC(=O)N1` (configuration not stated) gave an RP-LC retention time of 720 s.

As to `COc1ccc(C2CC(=O)N(c3ccc(F)cc3F)C(=O)C2)cc1`, the RP-LC retention time amounted to 931 s.

For `Cn1ccc2c(cc(C(=O)N3CCN(c4ccccc4F)CC3)n2C)c1=O`, the RP-LC retention time turned out to be 723 s.

Compound `COc1cc(Cl)c(NC(=O)C2CCN(S(=O)(=O)c3cn(C(C)C)cn3)CC2)c(OC)c1` had an RP-LC retention time of 797 s.

For the compound `CCN1C(=O)c2cccnc2Sc2cc(NC(=O)c3ccc(OC)cc3)ccc21`, the RP-LC retention time was 806 s.

Compound `CCC(=O)N(C1CCOCC1)C1CCN(S(=O)(=O)c2cc(F)cc(F)c2)CC1` returned an RP-LC retention time of 856 s.

`COc1ccc(NC(=O)Cn2nc3c(Oc4ccc(Cl)cc4)nccn3c2=O)cc1`: the RP-LC retention time was 832 s.

In turn, `CN1CCCc2ccc(NC(=O)CC3CCCN(c4cn[nH]c(=O)c4)C3)cc21` (configuration not stated) gave an RP-LC retention time of 638 s.

The compound `CC(C)CN1CCn2cc(S(=O)(=O)NCc3ccccc3Cl)cc2C1=O` registered an RP-LC retention time of 818 s.

For the compound `CCCCN1C(=O)C(C)(C(=O)Nc2cccc(F)c2)Oc2cccnc21` (configuration not stated), the RP-LC retention time came to 924 s.

Compound `CCOC(=O)c1noc2ncnc(N(C)Cc3ccccc3)c12` displayed an RP-LC retention time of 988 s.

As to `O=C(COc1ccc(C2=NN(C(=O)c3cccs3)C(c3ccccc3)C2)cc1)NCCO` (configuration not stated), the RP-LC retention time was 695 s.

`CC(C)CCC(=O)N1CCC2(CC1)N(C)C(=O)CS2(=O)=O`: the RP-LC retention time is 644 s.

In turn, `COc1ccc2nc(C(=O)NCc3ccc(F)cc3Cl)cn2n1` returned an RP-LC retention time of 872 s.

`COc1ccc(NC(=O)CSc2nccnc2Oc2ccc(C)cc2)cc1OC`: the RP-LC retention time came to 955 s.

Turning to `O=C(CN1C(=O)NC2(CCCCC2)C1=O)Nc1ccccc1`, the RP-LC retention time is 722 s.

For the compound `O=C1CC[C@@H](C(=O)N2CSC[C@H]2C(=O)O)N1`, the RP-LC retention time amounted to 562 s.

The compound `CC(C)c1ccc(N2C(=O)C3N=NN(Cc4nc(-c5ccccc5Br)no4)C3C2=O)cc1` (configuration not stated) registered an RP-LC retention time of 1140 s.

The compound `COc1ccc(-c2noc(Cc3nc(-c4ccc(C)cc4)cs3)n2)cc1` returned an RP-LC retention time of 1250 s.

In turn, `Cc1ccc(Cn2c(=O)n(CCNC(=O)c3ccoc3)c3ncccc32)cc1` showed an RP-LC retention time of 760 s.

`CC(C)c1ccc2c(c1)-c1ccccc1S(=O)(=O)N2CC(=O)NCc1ccncc1` came in with an RP-LC retention time of 699 s.

In turn, `Cc1cccc(CN2CCN(CC(=O)N3CCN(Cc4ccccc4)CC3)C(=O)C2=O)c1` yielded an RP-LC retention time of 608 s.

Compound `CCOc1ccc(CNC(=O)c2cc(S(=O)(=O)N3CCCCC3)c(C)n2C)cc1` came in with an RP-LC retention time of 1020 s.

`CCc1c(C(=O)O)nnn1-c1ccc(C(F)(F)F)cc1` gave an RP-LC retention time of 800 s.

As for `COc1ccccc1Nc1c(-c2ccc(OC)c(OC)c2)nc2cnccn12`, the RP-LC retention time worked out at 806 s.

`C#C[C@]1(O)CC[C@H]2[C@@H]3CCC4=CC(=O)CCC4=C3C=C[C@@]21CC` had an RP-LC retention time of 1050 s.

For `Cn1ccc(C(=O)N2CC(n3cc(COc4ccc(F)cc4)nn3)C2)n1`, the RP-LC retention time is 722 s.

As to `CC1Oc2ccc(S(=O)(=O)N3CCC(C(=O)Nc4ccc(F)cc4)CC3)cc2NC1=O` (configuration not stated), the RP-LC retention time amounted to 829 s.

Consider `CCOC(=O)C1CCN(C(=O)c2ccc3c(c2)CCCN3S(=O)(=O)CC)CC1`, for which the RP-LC retention time is 798 s.

`COCCNC(=O)c1c(C)sc2ccn(Cc3ccc(F)cc3)c(=O)c12` showed an RP-LC retention time of 749 s.

Compound `Clc1ccc(CSc2nnc(-c3ccc(Br)cc3)o2)cc1` had an RP-LC retention time of 1270 s.

For `CCn1cc(-c2nc(C(=O)NCc3ccc(F)cc3F)cs2)c2cccnc21`, the RP-LC retention time stood at 992 s.

`COc1ccccc1C(=O)Nc1ccc2nc(N3CCN(CC(=O)N(C)C)CC3)cc(C(=O)O)c2c1` gave an RP-LC retention time of 579 s.

`COc1cccc2sc(NC(=O)Cc3ccc(Cl)s3)nc12`: the RP-LC retention time was 923 s.

For the compound `O=C(Cn1cc(S(=O)(=O)N2CCOCC2)ccc1=O)N1CCCc2ccccc21`, the RP-LC retention time was found to be 750 s.

In turn, `O=C(Nc1cccc(Br)c1)N1CCCC1c1nc(-c2ccc(F)cc2F)no1` (configuration not stated) came in with an RP-LC retention time of 1060 s.

Consider `Cc1cc(N(CCO)Cc2ccccc2)n2nc(-c3ccccc3C)nc2n1`, for which the RP-LC retention time stood at 786 s.

With `COc1ccc(C(=C2C(=O)Nc3ccccc32)c2ccc(OC)cc2)cc1`, the RP-LC retention time is 974 s.

`Cn1ncc2c(Nc3ccc(O)cc3)nc(Cl)nc21` returned an RP-LC retention time of 731 s.

With `CCOC(=O)c1c(C)[nH]c(CCC(=O)NCc2cn[nH]c2C)c1C`, the RP-LC retention time stood at 626 s.

Take `Cn1c(NC(=O)C2CC2)cc(=O)n(C)c1=O`: the RP-LC retention time came out at 605 s.

Compound `O=C(NCCc1csc(C2CCN(C(=O)c3cc(F)ccc3F)CC2)n1)C1CC1` showed an RP-LC retention time of 699 s.

`CCOCCCNC(=O)Nc1c(-c2cccc(C)c2)nc2ccccn12` yielded an RP-LC retention time of 863 s.

In turn, `COc1ccccc1C(=O)Nc1cccc(Cl)c1` showed an RP-LC retention time of 964 s.

On to `O=C(CN1CCN(c2nccn2-c2ccccc2F)CC1)Nc1ccc(F)cc1F`, for which the RP-LC retention time turned out to be 562 s.

Take `Cc1ccccc1-c1noc(C2CCCN2C(=O)Nc2ccc(F)cc2F)n1` (configuration not stated): the RP-LC retention time was 993 s.

`O=C(NCc1ccco1)c1ccc(-c2noc(C3CC3)n2)cc1`: the RP-LC retention time stood at 839 s.

As to `CC(C)CN1C(=O)CCc2cc(NS(=O)(=O)c3cccc(F)c3)ccc21`, the RP-LC retention time was 898 s.

`CCOC(=O)Cc1ccc(NC(=O)Nc2cccn3c(C)nnc23)cc1` had an RP-LC retention time of 723 s.

On to `CC(C)n1cnnc1CC1CN(C(=O)Nc2cc(F)cc(F)c2)C1`, for which the RP-LC retention time was determined as 667 s.

The compound `COc1ccc(-c2nnc(-c3cccc(S(=O)(=O)N4CCCCCC4)c3)o2)cc1OC` returned an RP-LC retention time of 1020 s.

On to `COc1ccc(Nc2ncccc2S(N)(=O)=O)cc1Cl`, for which the RP-LC retention time is 801 s.

In turn, `Cc1ccccc1CNC1=NCCNC12CCN(S(=O)(=O)c1ccccc1C)CC2` showed an RP-LC retention time of 729 s.

In turn, `CC(C)CCNC(=O)CN1C(=O)C2CCCCN2c2ccc(C(=O)N(C)C)cc21` (configuration not stated) registered an RP-LC retention time of 745 s.

`Cc1noc(C)c1CN1CCC(NC(=O)c2cc3ccccc3[nH]2)CC1` showed an RP-LC retention time of 621 s.

Take `O=C(NC1CCN(c2nnc3ccc(C(F)(F)F)cn23)CC1)c1cccc(F)c1`: the RP-LC retention time stood at 782 s.

The compound `O=C(CN1C(=O)CCc2cc(Br)ccc21)Nc1ccccc1` came in with an RP-LC retention time of 889 s.

`Cc1ccc(-c2nc(-n3c(C)c4c(C)nnc(C)c4c3C)sc2C)cc1C`: the RP-LC retention time was 832 s.

In the case of `Cc1nc2nc(-c3ccc(C(C)(C)C)cc3)nn2c(C)c1CC(=O)N1CCCCC1C` (configuration not stated), the RP-LC retention time was 1080 s.

For the compound `CN(C)c1nc2cc(C(=O)NC3CCCC3)sc2n1-c1ccc(F)cc1`, the RP-LC retention time was determined as 1050 s.

For `Cc1ccc(NC(=O)c2nc(C(C)C)oc2C)cc1F`, the RP-LC retention time worked out at 1140 s.

In turn, `Cc1nc(CSc2ncnc3sc(C)c(C)c23)cs1` yielded an RP-LC retention time of 988 s.

In turn, `CCCn1cc(S(=O)(=O)NCc2ccccc2Cl)c2cccnc21` displayed an RP-LC retention time of 912 s.

Turning to `Cc1cccc(S(=O)(=O)N(C)CC2CCOCC2)c1`, the RP-LC retention time is 863 s.

`CCOc1ccc(CNC(=O)CN2CCN(Cc3ccc(F)cc3)C2=O)cc1OC`: the RP-LC retention time is 751 s.

In the case of `O=C1NCC2(CCN(CCc3ccccc3)CC2)O1`, the RP-LC retention time was 579 s.

Compound `c1ccc(C2CN3CCSC3=N2)cc1` (configuration not stated) yielded an RP-LC retention time of 618 s.

In turn, `Cc1cc(N2CCCCC2)n2nc(CN3CCC4(CC3)OCCO4)nc2n1` registered an RP-LC retention time of 580 s.
